Measured values taken from patent publication US8759354B2, “Pharmaceutical composition comprising pyrazine derivative, and method of using pyrazine derivative in combination” (priority 2007, dated 2014).
Where two headings read alike, the source gives them in different places.

Tests used:
[1] = test system: influenza virus (PR/8 (H1N1)); assay: microbe, parasite or virus in culture; type: cell-based; details: unidentified influenza virus, MDCK; for inhibition at 0.00625 µg/mL: read-out: Inhibition rate, single use, 0.00625 μg/mL; for inhibition at 0.0125 µg/mL: read-out: Inhibition rate, single use, 0.0125 μg/mL; for inhibition at 0.025 µg/mL: read-out: Inhibition rate, single use, 0.025 μg/mL; for inhibition at 0.05 µg/mL: read-out: Inhibition rate, single use, 0.05 μg/mL; for inhibition at 0.1 µg/mL: read-out: Inhibition rate, single use, 0.1 μg/mL; for inhibition at 0.2 µg/mL: read-out: Inhibition rate, single use, 0.2 μg/mL; for inhibition at 0.4 µg/mL: read-out: Inhibition rate, single use, 0.4 μg/mL; for inhibition at 0.0625 µg/mL: read-out: Inhibition rate, single use, 0.0625 μg/mL; for inhibition at 0.125 µg/mL: read-out: Inhibition rate, single use, 0.125 μg/mL; for inhibition at 0.25 µg/mL: read-out: Inhibition rate, single use, 0.25 μg/mL; for inhibition at 0.5 µg/mL: read-out: Inhibition rate, single use, 0.5 μg/mL; for inhibition at 1 µg/mL: read-out: Inhibition rate, single use, 1 μg/mL; for inhibition at 2 µg/mL: read-out: Inhibition rate, single use, 2 μg/mL
[2] = test system: Victoria/3/75 (H3N2) influenza virus; assay: microbe, parasite or virus in culture; type: cell-based; details: Influenza A virus, H3N2, MDCK, single use, read-out: Inhibition rate; for inhibition at 0.0125 µg/mL: 0.0125 μg/mL; for inhibition at 0.025 µg/mL: 0.025 μg/mL; for inhibition at 0.05 µg/mL: 0.05 μg/mL; for inhibition at 0.1 µg/mL: 0.1 μg/mL; for inhibition at 0.2 µg/mL: 0.2 μg/mL; for inhibition at 0.125 µg/mL: 0.125 μg/mL; for inhibition at 0.25 µg/mL: 0.25 μg/mL; for inhibition at 0.5 µg/mL: 0.5 μg/mL; for inhibition at 1 µg/mL: 1 μg/mL; for inhibition at 2 µg/mL: 2 μg/mL; for inhibition at 4 µg/mL: 4 μg/mL

Q: For `CC(=O)N[C@H]1[C@H]([C@H](O)[C@H](O)CO)OC(C(=O)O)=C[C@@H]1N=C(N)N` [Zanamivir, zanamivir], which inhibition at 0.0031 µg/mL ([1]; read-out: Inhibition rate, single use, 0.0031 μg/mL, Test Example 2) is on record?
A: 6.2%

Q: And the inhibition at 0.00625 µg/mL ([1]; Test Example 2)?
A: 12%

Q: And the inhibition at 0.0125 µg/mL ([1]; Test Example 2)?
A: 23%

Q: And the inhibition at 0.025 µg/mL ([1]; Test Example 2)?
A: 28%

Q: What about the inhibition at 0.05 µg/mL ([1]; Test Example 2) of the same molecule?
A: 49%

Q: What about the inhibition at 0.1 µg/mL ([1]; Test Example 2) of the same molecule?
A: 60%

Q: And the inhibition at 0.2 µg/mL ([1]; Test Example 2)?
A: 67%

Q: And the inhibition at 0.4 µg/mL ([1]; Test Example 2)?
A: 75%

Q: And the inhibition at 0.0125 µg/mL ([2]; Test Example 4)?
A: 7.4%

Q: What about the inhibition at 0.025 µg/mL ([2]; Test Example 4) of the same molecule?
A: 14%

Q: And the inhibition at 0.05 µg/mL ([2]; Test Example 4)?
A: 27%

Q: And the inhibition at 0.1 µg/mL ([2]; Test Example 4)?
A: 40%

Q: What about the inhibition at 0.2 µg/mL ([2]; Test Example 4) of the same molecule?
A: 60%

Q: What about the inhibition at 0.4 µg/mL ([2]; 0.4 μg/mL, Test Example 4) of the same molecule?
A: 71%

Q: What about the inhibition at 0.8 µg/mL ([2]; 0.8 μg/mL, Test Example 4) of the same molecule?
A: 81%

Q: With `CCC(CC)O[C@@H]1C=C(C(=O)O)C[C@H](N)[C@H]1NC(C)=O` [GS-4071] as the molecule, how does the inhibition at 0.00313 µg/mL ([1]; read-out: Inhibition rate, single use, 0.00313 μg/mL, Test Example 1) read?
A: 1.9%

Q: And the inhibition at 0.00625 µg/mL ([1]; Test Example 1)?
A: 11%

Q: And the inhibition at 0.0125 µg/mL ([1]; Test Example 1)?
A: 14%

Q: What about the inhibition at 0.025 µg/mL ([1]; Test Example 1) of the same molecule?
A: 25%

Q: What about the inhibition at 0.05 µg/mL ([1]; Test Example 1) of the same molecule?
A: 29%

Q: What about the inhibition at 0.1 µg/mL ([1]; Test Example 1) of the same molecule?
A: 42%

Q: What about the inhibition at 0.2 µg/mL ([1]; Test Example 1) of the same molecule?
A: 61%

Q: And the inhibition at 0.4 µg/mL ([1]; Test Example 1)?
A: 73%

Q: And the inhibition at 0.8 µg/mL ([1]; read-out: Inhibition rate, single use, 0.8 μg/mL, Test Example 1)?
A: 84%

Q: What about the inhibition at 0.003125 µg/mL ([2]; 0.003125 μg/mL, Test Example 3) of the same molecule?
A: 8.6%

Q: What about the inhibition at 0.00625 µg/mL ([2]; 0.00625 μg/mL, Test Example 3) of the same molecule?
A: 14%

Q: And the inhibition at 0.0125 µg/mL ([2]; Test Example 3)?
A: 44%

Q: What about the inhibition at 0.025 µg/mL ([2]; Test Example 3) of the same molecule?
A: 54%

Q: What about the inhibition at 0.05 µg/mL ([2]; Test Example 3) of the same molecule?
A: 68%

Q: What about the inhibition at 0.1 µg/mL ([2]; Test Example 3) of the same molecule?
A: 80%

Q: And the inhibition at 0.2 µg/mL ([2]; Test Example 3)?
A: 88%

Q: Which results are given for `NC(=O)c1nc(F)cnc1O` [T-705, 6-Fluoro-3-hydroxy-2-pyrazinecarboxamide]?
A: inhibition at 0.0156 µg/mL ([1]; read-out: Inhibition rate, single use, 0.0156 μg/mL, Test Example 1): 1.9%; inhibition at 0.0313 µg/mL ([1]; read-out: Inhibition rate, single use, 0.0313 μg/mL, Test Example 1): 6.7%; inhibition at 0.0625 µg/mL ([1]; Test Example 1): 9.7%; inhibition at 0.0625 µg/mL ([1]; Test Example 2): 6.2%; inhibition at 0.125 µg/mL ([1]; Test Example 1): 27%; inhibition at 0.125 µg/mL ([1]; Test Example 2): 17%; inhibition at 0.25 µg/mL ([1]; Test Example 1): 43%; inhibition at 0.25 µg/mL ([1]; Test Example 2): 34%; inhibition at 0.5 µg/mL ([1]; Test Example 1): 60%; inhibition at 0.5 µg/mL ([1]; Test Example 2): 64%; inhibition at 1 µg/mL ([1]; Test Example 1): 85%; inhibition at 1 µg/mL ([1]; Test Example 2): 77%; inhibition at 2 µg/mL ([1]; Test Example 1): 93%; inhibition at 2 µg/mL ([1]; Test Example 2): 89%; inhibition at 4 µg/mL ([1]; read-out: Inhibition rate, single use, 4 μg/mL, Test Example 1): 100%; inhibition at 0.125 µg/mL ([2]; Test Example 3): 2.6%; inhibition at 0.125 µg/mL ([2]; Test Example 4): 2.6%; inhibition at 0.25 µg/mL ([2]; Test Example 3): 9%; inhibition at 0.25 µg/mL ([2]; Test Example 4): 9.2%; inhibition at 0.5 µg/mL ([2]; Test Example 3): 42%; inhibition at 0.5 µg/mL ([2]; Test Example 4): 42%; inhibition at 1 µg/mL ([2]; Test Example 3): 76%; inhibition at 1 µg/mL ([2]; Test Example 4): 76%; inhibition at 2 µg/mL ([2]; Test Example 3): 86%; inhibition at 2 µg/mL ([2]; Test Example 4): 86%; inhibition at 4 µg/mL ([2]; Test Example 3): 94%; inhibition at 4 µg/mL ([2]; Test Example 4): 94%
